For data set [1], the system named is Mycosphaerella graminicola (Septoria tritici). Nature of the data set: Mycosphaerella graminicola (Septoria tritici)/Liquid Culture (Septoria Blotch). The conditions noted are these: Zymoseptoria tritici; 20 ppm; liquid culture; compared to untreated control. It counts as cell-based. A digest of the protocol: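 Conidia from cryogenic storage mixed into potato dextrose broth and added to microtiter wells already holding DMSO solutions of test compound. Activity expressed as percentage disease control.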

Data set [2] concerns Pythium ultimum. Nature of the data set: Pythium ultimum/Liquid Culture (Seedling Damping Off). Format: cell-based. The conditions noted are these: Globisporangium ultimum, liquid culture, compared to untreated control. The method, then:
Mycelia fragments and oospores of a newly grown liquid culture of the fungus are directly mixed into nutrient broth (PDB potato dextrose broth). After placing a (DMSO) solution of test compound into a microtiter plate (96-well format), the nutrient broth containing the fungal mycelia/spore mixture is added.

Data set [3] has as its system Thanatephorus cucumeris (Rhizoctonia solani). Nature of the data set: Thanatephorus cucumeris (Rhizoctonia solani)/Liquid Culture (Foot Rot, Damping-Off). Format: cell-based. The conditions noted are these: liquid culture, compared to untreated control. Here is the method: Mycelia fragments of a newly grown liquid culture of the fungus are directly mixed into nutrient broth (PDB potato dextrose broth). After placing a (DMSO) solution of the test compounds into a microtiter plate (96-well format), the nutrient broth containing the fungal material is added.

In data set [4] the test system is Glomerella lagenarium (Colletotrichum lagenarium). Nature of the data set: Glomerella lagenarium (Colletotrichum lagenarium)/Liquid Culture (Anthracnose). The conditions noted are these: Colletotrichum orbiculare, liquid culture, compared to untreated control. It counts as cell-based.
Data set [5] deals with Alternaria solani. Kind of data set: Alternaria solani/Tomato/Leaf Disc (Early Blight). Format: in vivo. The settings on record: foliar, tomato leaf disc, compared to untreated control. An outline of the steps: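 Tomato cv. Baby leaf disks on agar were sprayed with diluted formulated compound and inoculated with spores 2 days later. Incubation at 23° C./21° C. day/night, 80% rh, 12/12 h light; percent disease control versus untreated scored 5-7 days after application.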

The subject of data set [6] is Mycosphaerella arachidis (Cercospora arachidicola). Nature of the data set: Mycosphaerella arachidis (Cercospora arachidicola)/Liquid Culture (Early Leaf Spot). It counts as cell-based. The settings on record: liquid culture, compared to untreated control. An outline of the steps: (§1)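 Test compound dissolved in DMSO is dispensed first; nutrient broth (potato dextrose) carrying conidia thawed from cryogenic storage follows.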

Data set [7] has as its system Puccinia recondita f. sp. tritici. Nature of the data set: Puccinia recondita f. sp. tritici/Wheat/Leaf Disc Preventative (Brown Rust). Format: in vivo. The conditions noted are these: foliar, 200 ppm, wheat leaf disc preventative, compared to untreated control, read-out: control of Puccinia recondita f. sp. tritici.
Data set [8] concerns Sclerotinia sclerotiorum. Nature of the data set: Sclerotinia sclerotiorum/Liquid Culture (Cottony Rot). It counts as cell-based. The conditions noted are these: liquid culture, compared to untreated control. Here is the method: Mycelia fragments of a newly grown liquid culture of the fungus are directly mixed into nutrient broth (PDB potato dextrose broth). After placing a (DMSO) solution of test compound into a microtiter plate (96-well format) the nutrient broth containing the fungal material is added.

Data set [9] deals with Monographella nivalis (Microdochium nivale). Nature of the data set: Monographella nivalis (Microdochium nivale)/Liquid Culture (Foot Rot Cereals). The settings on record: liquid culture, compared to untreated control. It counts as cell-based. An outline of the steps:
as §1

For data set [10], the system named is Plasmopara viticola. Nature of the data set: whole plant or invertebrate. Format: in vivo. The settings on record: foliar, read-out: control of Plasmopara viticola.
For data set [11], the system named is Puccinia recondita f. sp. tritici. Nature of the data set: Puccinia recondita f. sp. tritici/Wheat/Leaf Disc Curative (Brown Rust). It counts as in vivo. The conditions noted are these: foliar, wheat leaf disc curative, compared to untreated control. A digest of the protocol: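 Curative leaf-disc test on wheat cv. Kanzler segments on agar, spore-inoculated and kept dark at 19° C, 75% rh; formulated compound in water applied 1 day after inoculation. Incubated at 19° C, 75% rh, 12 h light/12 h dark; percent disease control versus untreated scored 6-8 days after application.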

The subject of data set [12] is Blumeria graminis f. sp. tritici (Erysiphe graminis f. sp. tritici). Kind of data set: Blumeria graminis f. sp. tritici/Wheat/Leaf Disc Preventative (Powdery Mildew on Wheat). The settings on record: foliar, wheat leaf disc preventative, compared to untreated control. It counts as in vivo. An outline of the steps:
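Wheat cv. Kanzler leaf segments on agar sprayed with formulated compound, inoculated with powdery mildew 1 day later and held at 20° C, 60% rh (24 h dark, then 12 h light/12 h dark). Percent disease control versus untreated scored 6-8 days after application.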

A short description of data set [13]: Photostability assay (Atlas Suntest). Format: physicochemical. The settings on record: Suntest 750 W/m^2, spotted on microscope slides. A digest of the protocol:
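Compound (2 μl of 1 g/L methanol stock) spotted on glass slides and irradiated at 750 W/m^2 in a Suntest. Slides were washed with H2O:MeCN:THF 50:40:10 and analysed by reverse-phase UPLC-PDA; peak area versus initial gave % parent remaining at 3 hours.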

Data set [14] concerns Phaeosphaeria nodorum (Septoria nodorum). Kind of data set: Phaeosphaeria nodorum (Septoria nodorum)/Wheat/Leaf Disc Preventative (Glume Blotch). The conditions noted are these: Parastagonospora nodorum, foliar, wheat leaf disc preventative, compared to untreated control. Format: in vivo. A digest of the protocol:
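Wheat cv. Kanzler leaf discs on agar were sprayed with formulated compound diluted in water and inoculated with P. nodorum spores 2 days later. Discs kept at 20 °C, 75% rh, 12 h light/dark; percent disease control versus untreated scored 5–7 days after application.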

Data set [15] concerns Magnaporthe grisea (Pyricularia oryzae). Nature of the data set: whole plant or invertebrate. Format: in vivo. The settings on record: foliar, read-out: control of Magnaporthe grisea.

Where only a bound is given, the exact number is not on record here.

A word on the inhibition of growth: it is how much of the control response was suppressed. High values mean strong suppression, low ones little suppression. As usually defined, the melting point is the temperature, or range, at which the solid turns liquid. For `CO/C=C(\Oc1cc(-n2ccc(C(C)(F)F)n2)ccc1C)C(=O)OC` [Compound E-68, methyl (Z)-2-[5-[3-(1,1-difluoroethyl)pyrazol-1-yl]-2-methyl-phenoxy]-3-methoxy-prop-2-enoate], the melting point was 119 to 121 °C. The inhibition of growth at 20 ppm in data set [1] was at least 80%. Besides, the inhibition of growth at 20 ppm in [2] is at least 80%. The molecule also gave an inhibition of growth at 20 ppm in data set [3] of at least 80%. In addition, the inhibition of growth at 20 ppm in [4] is at least 80%. Moreover, the pest or weed control at 200 ppm in [5] is at least 80%. In data set [6], the inhibition of growth at 20 ppm was at least 80%. The pest or weed control at 200 ppm in data set [7] is at least 80%. Moreover, in data set [8], the inhibition of growth at 20 ppm is at least 80%. The molecule further registered an inhibition of growth at 20 ppm in [9] of at least 80%. Besides, the pest or weed control at 200 ppm in [10] was at least 80%. The molecule further displayed a pest or weed control at 200 ppm in data set [11] of at least 80%. For the same molecule, in data set [12], the pest or weed control at 200 ppm is at least 80%. Besides, in [13], the “% Parent Remaining @ 3 hrs” value was determined as 40%. The molecule further returned a pest or weed control at 200 ppm in data set [14] of at least 80%. Further, in data set [15], the pest or weed control at 200 ppm is at least 80%.

For the origin of these results see patent US12043600B2, “Microbiocidal compounds” (SYNGENTA CROP PROTECTION AG, priority 2018, dated 2024).
